ChEMBL document CHEMBL3758109, “A novel triazole derivative of betulinic acid induces extrinsic and intrinsic apoptosis in human leukemia HL-60 cells” (Eur J Med Chem, 2016)

How the values were obtained:
[1] = Cytotoxicity against human MIAPaCa2 cells assessed as cell growth inhibition at 10 uM after 48 hrs by MTT assay; assay type: functional; conditions: MIA PaCa-2, 48 h, read-out: GI
[2] = Cytotoxicity against human PC3 cells assessed as cell growth inhibition at 10 uM after 48 hrs by MTT assay; assay type: functional; conditions: PC-3, 48 h, read-out: GI
[3] = Cytotoxicity against human HL60 cells assessed as cell growth inhibition at 10 uM after 48 hrs by MTT assay; assay type: functional; conditions: HL-60, 48 h, read-out: GI
[4] = test system: A549; experiment: Cytotoxicity against human A549 cells assessed as cell growth inhibition at 10 uM after 48 hrs by MTT assay; assay type: functional; conditions: A549, 48 h, read-out: GI
[5] = Cytotoxicity against human HL60 cells assessed as cell growth inhibition after 48 hrs by MTT assay; assay type: functional, cell-based; conditions: HL-60, 48 h
[6] = test system: A549; experiment: Cytotoxicity against human A549 cells assessed as cell growth inhibition after 48 hrs by MTT assay; assay type: functional, cell-based; conditions: A549, 48 h
[7] = Cytotoxicity against human PC3 cells assessed as cell growth inhibition after 48 hrs by MTT assay; assay type: functional, cell-based; conditions: PC-3, 48 h
[8] = Cytotoxicity against human MIAPaCa2 cells assessed as cell growth inhibition after 48 hrs by MTT assay; assay type: functional, cell-based; conditions: MIA PaCa-2, 48 h

SMILES | inhibition of growth at 10 µM [1] [%] | inhibition of growth at 10 µM [2] [%] | inhibition of growth at 10 µM [3] [%] | inhibition of growth at 10 µM [4] [%] | IC50 [5] [µM] | IC50 [6] [µM] | IC50 [7] [µM] | IC50 [8] [µM]
C=C(C)[C@@H]1CC[C@]2(C(=O)OCc3cn(-c4ccc(C=O)cc4)nn3)CC[C@]3(C)[C@H](CC[C@@H]4[C@@]5(C)CC[C@H](O)C(C)(C)[C@@H]5CC[C@]43C)[C@@H]12 | 7 | 9 | 21 | 4 | – | – | – | –
C=C(C)[C@@H]1CC[C@]2(C(=O)OCc3cn(-c4cc(C)ccc4C)nn3)CC[C@]3(C)[C@H](CC[C@@H]4[C@@]5(C)CC[C@H](O)C(C)(C)[C@@H]5CC[C@]43C)[C@@H]12 | 38 | 44 | 51 | 41 | – | – | – | –
C=C(C)[C@@H]1CC[C@]2(C(=O)OCc3cn(-c4cc(F)c(F)cc4Br)nn3)CC[C@]3(C)[C@H](CC[C@@H]4[C@@]5(C)CC[C@H](O)C(C)(C)[C@@H]5CC[C@]43C)[C@@H]12 | 36 | 17 | 48 | 10 | 12 | 100 | 100 | 27
C=C(C)[C@@H]1CC[C@]2(C(=O)OCc3cn(-c4ccccc4C#N)nn3)CC[C@]3(C)[C@H](CC[C@@H]4[C@@]5(C)CC[C@H](OCc6cn(-c7ccccc7C#N)nn6)C(C)(C)[C@@H]5CC[C@]43C)[C@@H]12 | 23 | 15 | 12 | 0 | – | – | – | –
C=C(C)[C@@H]1CC[C@]2(C(=O)OCc3cn(-c4ccccc4)nn3)CC[C@]3(C)[C@H](CC[C@@H]4[C@@]5(C)CC[C@H](O)C(C)(C)[C@@H]5CC[C@]43C)[C@@H]12 | 39 | 25 | 11 | 27 | 27 | 18 | 18 | 18
C=C(C)[C@@H]1CC[C@]2(C(=O)OCc3cn(-c4ccc(C(C)(C)C)cc4)nn3)CC[C@]3(C)[C@H](CC[C@@H]4[C@@]5(C)CC[C@H](O)C(C)(C)[C@@H]5CC[C@]43C)[C@@H]12 | 9 | 9 | 11 | 9 | – | – | – | –
C=C(C)[C@@H]1CC[C@]2(C(=O)OCc3cn(-c4ccc(F)cc4)nn3)CC[C@]3(C)[C@H](CC[C@@H]4[C@@]5(C)CC[C@H](OCc6cn(-c7ccc(F)cc7)nn6)C(C)(C)[C@@H]5CC[C@]43C)[C@@H]12 | 7 | 8 | 13 | 11 | – | – | – | –
C=C(C)[C@@H]1CC[C@]2(C(=O)OCc3cn(-c4ccc(OC)cc4)nn3)CC[C@]3(C)[C@H](CC[C@@H]4[C@@]5(C)CC[C@H](O)C(C)(C)[C@@H]5CC[C@]43C)[C@@H]12 | 36 | 2 | 8 | 13 | 30 | > 100 | > 100 | 22
C=C(C)[C@@H]1CC[C@]2(C(=O)OCc3cn(-c4cccc([N+](=O)[O-])c4)nn3)CC[C@]3(C)[C@H](CC[C@@H]4[C@@]5(C)CC[C@H](O)C(C)(C)[C@@H]5CC[C@]43C)[C@@H]12 | 9 | 10 | 21 | 8 | – | – | – | –
C=C(C)[C@@H]1CC[C@]2(C(=O)OCc3cn(-c4ccccc4I)nn3)CC[C@]3(C)[C@H](CC[C@@H]4[C@@]5(C)CC[C@H](O)C(C)(C)[C@@H]5CC[C@]43C)[C@@H]12 | 53 | 29 | 38 | 40 | 27 | > 100 | > 100 | 8
C=C(C)[C@@H]1CC[C@]2(C(=O)OCc3cn(/C=C/c4ccccc4)nn3)CC[C@]3(C)[C@H](CC[C@@H]4[C@@]5(C)CC[C@H](O)C(C)(C)[C@@H]5CC[C@]43C)[C@@H]12 | 35 | 8 | 20 | 47 | – | – | – | –
C=C(C)[C@@H]1CC[C@]2(C(=O)OCc3cn(-c4ccc(OC)c(OC)c4)nn3)CC[C@]3(C)[C@H](CC[C@@H]4[C@@]5(C)CC[C@H](O)C(C)(C)[C@@H]5CC[C@]43C)[C@@H]12 | 8 | 8 | 7 | 6 | 8 | 16 | 11 | 21
C=C(C)[C@@H]1CC[C@]2(C(=O)OCc3cn(-c4ccc(NC(=O)c5ccccc5)cc4)nn3)CC[C@]3(C)[C@H](CC[C@@H]4[C@@]5(C)CC[C@H](O)C(C)(C)[C@@H]5CC[C@]43C)[C@@H]12 | 0 | 21 | 0 | 2 | – | – | – | –
C=C(C)[C@@H]1CC[C@]2(C(=O)OCc3cn(-c4ccc5oc6ccccc6c5c4)nn3)CC[C@]3(C)[C@H](CC[C@@H]4[C@@]5(C)CC[C@H](O)C(C)(C)[C@@H]5CC[C@]43C)[C@@H]12 | 7 | 4 | 14 | 5 | – | – | – | –
C=C(C)[C@@H]1CC[C@]2(C(=O)OCc3cn(-c4ccccc4C#N)nn3)CC[C@]3(C)[C@H](CC[C@@H]4[C@@]5(C)CC[C@H](O)C(C)(C)[C@@H]5CC[C@]43C)[C@@H]12 | 4 | 6 | 22 | 9 | – | – | – | –
C=C(C)[C@@H]1CC[C@]2(C(=O)OCc3cn(-c4cccc(OCc5ccc(F)cc5)c4)nn3)CC[C@]3(C)[C@H](CC[C@@H]4[C@@]5(C)CC[C@H](O)C(C)(C)[C@@H]5CC[C@]43C)[C@@H]12 | 9 | 4 | 32 | 6 | – | – | – | –
C#CCOC(=O)[C@]12CC[C@@H](C(=C)C)[C@@H]1[C@H]1CC[C@@H]3[C@@]4(C)CC[C@H](O)C(C)(C)[C@@H]4CC[C@@]3(C)[C@]1(C)CC2 | 20 | 46 | 50 | 41 | – | – | – | –
C=C(C)[C@@H]1CC[C@]2(C(=O)OCc3cn(-c4cccc(OC)c4OC)nn3)CC[C@]3(C)[C@H](CC[C@@H]4[C@@]5(C)CC[C@H](O)C(C)(C)[C@@H]5CC[C@]43C)[C@@H]12 | 30 | 49 | 58 | 48 | – | – | – | –
C=C(C)[C@@H]1CC[C@]2(C(=O)OCc3cn(-c4ccc(OCCC)c(Cl)c4)nn3)CC[C@]3(C)[C@H](CC[C@@H]4[C@@]5(C)CC[C@H](O)C(C)(C)[C@@H]5CC[C@]43C)[C@@H]12 | 3 | 7 | 23 | 1 | – | – | – | –
C=C(C)[C@@H]1CC[C@]2(C(=O)OCc3cn(-c4cccc5c(O)cccc45)nn3)CC[C@]3(C)[C@H](CC[C@@H]4[C@@]5(C)CC[C@H](OCc6cn(-c7cccc8c(O)cccc78)nn6)C(C)(C)[C@@H]5CC[C@]43C)[C@@H]12 | 19 | 18 | 23 | 18 | – | – | – | –
C=C(C)[C@@H]1CC[C@]2(C(=O)OCc3cn(-c4c(F)ccc(OC)c4Br)nn3)CC[C@]3(C)[C@H](CC[C@@H]4[C@@]5(C)CC[C@H](O)C(C)(C)[C@@H]5CC[C@]43C)[C@@H]12 | 7 | 5 | 12 | 7 | – | – | – | –
C=C(C)[C@@H]1CC[C@]2(C(=O)OCc3cn(-c4ccc(-c5ccccc5)cc4)nn3)CC[C@]3(C)[C@H](CC[C@@H]4[C@@]5(C)CC[C@H](O)C(C)(C)[C@@H]5CC[C@]43C)[C@@H]12 | 10 | 10 | 13 | 5 | – | – | – | –
C=C(C)[C@@H]1CC[C@]2(C(=O)OCc3cn(-c4ccc5ccccc5c4)nn3)CC[C@]3(C)[C@H](CC[C@@H]4[C@@]5(C)CC[C@H](O)C(C)(C)[C@@H]5CC[C@]43C)[C@@H]12 | 6 | 7 | 18 | 1 | – | – | – | –
C=C(C)[C@@H]1CC[C@]2(C(=O)OCc3cn(-c4cccc5c(O)cccc45)nn3)CC[C@]3(C)[C@H](CC[C@@H]4[C@@]5(C)CC[C@H](O)C(C)(C)[C@@H]5CC[C@]43C)[C@@H]12 | 3 | 5 | 26 | 7 | – | – | – | –
C=C(C)[C@@H]1CC[C@]2(C(=O)OCc3cn(-c4ccc(C)cc4)nn3)CC[C@]3(C)[C@H](CC[C@@H]4[C@@]5(C)CC[C@H](O)C(C)(C)[C@@H]5CC[C@]43C)[C@@H]12 | 34 | 67 | 56 | 52 | – | – | – | –
